Results as given in ChEMBL document CHEMBL1157139, “A structural analysis of the differential cytotoxicity of chemicals in the NCI-60 cancer cell lines” (2008).

Key:
Assay type in all cases: functional
[1] = system: NCI-H23; experiment: Cytotoxicity against human NCI-H23 cells; conditions: for CC50: read-out: pLC50 (the source's name) (converted); for TGI: read-out: pTGI (converted)
[2] = system: NCI-H522; experiment: Cytotoxicity against human NCI-H522 cells; conditions: for TGI: read-out: pTGI (converted)
[3] = system: A549; experiment: Cytotoxicity against human A549 cells; conditions: for GI50: A549; for CC50: A549, read-out: pLC50 (converted); for TGI: A549, read-out: pTGI (converted)

Row | SMILES | GI50 [1] [µM] | CC50 [1] [µM] | TGI [1] [µM] | GI50 [2] [µM] | TGI [2] [µM] | GI50 [3] [µM] | CC50 [3] [µM] | TGI [3] [µM]
1 | O=C(O)c1ccccn1 [2-PICOLINIC ACID] | 61.8 | 88.5 | 74 | 0.693 | 1.05 | 65.2 | > 100 | 82
2 | C[C@@H]1C[C@@H]([C@H](O)CC2CC(=O)NC(=O)C2)C(=O)[C@@H](C)C1 [CYCLOHEXIMIDE] | > 100 | > 100 | > 100 | > 100 | > 100 | > 100 | > 100 | > 100
